Results published in ChEMBL document CHEMBL1201862, “PubChem BioAssay data set” (2004).
The source made the active and inactive calls.

Key:
[1] = biological target: T1, Oxysterols receptor LXR-beta (Homo sapiens, UniProt P55055); experiment: LXR agonists, Gal4 luciferase reporter, dose response, counter-screen for ssDAF-12 agonist project, cell-based, luminescence, HEK293, S. stercoralis campaign (AID 720737); assay type: functional; settings: read-out: IC50 (the source's name)
T1 sequence (P55055 whole entry): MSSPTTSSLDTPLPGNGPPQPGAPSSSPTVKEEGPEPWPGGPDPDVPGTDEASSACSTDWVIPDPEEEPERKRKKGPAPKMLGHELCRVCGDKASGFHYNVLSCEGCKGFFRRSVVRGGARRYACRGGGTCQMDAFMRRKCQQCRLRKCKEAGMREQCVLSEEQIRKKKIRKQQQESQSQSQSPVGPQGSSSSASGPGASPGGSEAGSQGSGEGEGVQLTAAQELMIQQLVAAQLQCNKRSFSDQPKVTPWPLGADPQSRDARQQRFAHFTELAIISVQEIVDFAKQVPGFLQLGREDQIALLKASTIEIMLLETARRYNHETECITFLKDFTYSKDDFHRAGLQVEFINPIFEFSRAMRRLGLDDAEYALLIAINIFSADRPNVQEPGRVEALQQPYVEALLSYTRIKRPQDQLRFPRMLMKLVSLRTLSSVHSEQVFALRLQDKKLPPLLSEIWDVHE

[2] = Luminescence-based cell-based high throughput dose response assay to identify activators of the DAF-12 from the parasite S. stercoralis (ssDAF-12).; assay type: functional
Protein Tat = Protein Tat (Human immunodeficiency virus type 1 group M subtype B (isolate HXB2)(HIV-1), UniProt P04608); assay type: functional;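 further: tat binding to TAR RNA read out by fluorescence polarization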
[3] = biological target: T2, Rac GTPase-activating protein 1 (Homo sapiens, UniProt Q9H0H5); experiment: MgcRacGAP GTPase-activating activity inhibitors, confirmation, biochemical, ADP Hunter fluorescence, primary and confirmatory (AID 624330); assay type: functional
T2 sequence (Q9H0H5 whole entry): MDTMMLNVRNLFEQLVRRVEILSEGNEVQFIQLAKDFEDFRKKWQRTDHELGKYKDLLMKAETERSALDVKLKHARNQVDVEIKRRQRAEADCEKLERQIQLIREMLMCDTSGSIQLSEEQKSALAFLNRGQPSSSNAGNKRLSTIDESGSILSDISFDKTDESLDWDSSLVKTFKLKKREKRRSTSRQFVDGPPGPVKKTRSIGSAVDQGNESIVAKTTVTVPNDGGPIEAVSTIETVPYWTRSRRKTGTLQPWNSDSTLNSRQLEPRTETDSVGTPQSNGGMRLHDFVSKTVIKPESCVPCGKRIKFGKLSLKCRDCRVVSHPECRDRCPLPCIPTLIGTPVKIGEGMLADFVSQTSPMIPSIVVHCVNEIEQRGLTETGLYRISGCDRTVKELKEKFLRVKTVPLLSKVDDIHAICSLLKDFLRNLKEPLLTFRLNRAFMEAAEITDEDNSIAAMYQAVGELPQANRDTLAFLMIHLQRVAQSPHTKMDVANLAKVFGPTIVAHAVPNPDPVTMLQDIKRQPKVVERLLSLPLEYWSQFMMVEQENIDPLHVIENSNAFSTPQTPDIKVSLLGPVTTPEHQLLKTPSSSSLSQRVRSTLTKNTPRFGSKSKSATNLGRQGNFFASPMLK

[4] = biological target: 1-phosphatidylinositol 4,5-bisphosphate phosphodiesterase gamma-1 (Homo sapiens, UniProt P19174); experiment: Counterscreen for inhibitors of phospholipase C isozymes (PLC-B3): Fluorescence-based biochemical high throughput dose response assay to identify inhibitors of phospholipase C isozymes (PLC-gamma1).
[5] = biological target: 1-phosphatidylinositol 4,5-bisphosphate phosphodiesterase beta-3 (Homo sapiens, UniProt Q01970); experiment: Fluorescence-based biochemical high throughput dose response assay to identify inhibitors of phospholipase C isozymes (PLC-B3).
[6] = biological target: Photoreceptor-specific nuclear receptor (Homo sapiens, UniProt Q9Y5X4); experiment: NR2E3 inverse agonists, dose response, biochemical, TR-FRET (AID 463256); assay type: functional
[7] = biological target: Peroxisome proliferator-activated receptor gamma/Nuclear receptor corepressor 2 (Homo sapiens, UniProt P37231+Q9Y618); experiment: Counterscreen for NR2E3 inverse agonists: TR-FRET-based biochemical high throughput dose response assay to identify inverse agonists of the interaction between peroxisome proliferator-activated receptor gamma (PPARg) and nuclear receptor co-repressor 2 (NCOR2).; assay type: functional
Genome polyprotein = Genome polyprotein (dengue virus type 2, UniProt P29990); experiment: Dengue-2 NS5 methyltransferase inhibitors, primary screen, biochemical, confirmation dose response (AID 588689); assay type: functional
[8] = biological target: Bifunctional protein GlmU (Mycobacterium tuberculosis, UniProt P9WMN3); experiment: Inhibitors of Mycobacterial Glucosamine-1-phosphate acetyl transferase (GlmU). Secondary screen.; parameters: species or system Mycobacterium tuberculosis H37Rv
[9] = HepG2 cell cytotoxicity, dose response, cytotoxicity control, plate reader, cherry-pick, antagonist series (AID 743416); assay type: functional, cell-based
[10] = control 3'UTR Renilla luciferase suppression, dose response, counter-screen for Shn3 inhibitor project, cell-based, Clone20-Shn3RL, cherry-picked (AID 624133); assay type: functional
[11] = LGR2 antagonists, dose response, cell-based, HEK293, CRE-luciferase reporter, cherry pick, set 2 (AID 743343); assay type: functional;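 further: transfected cells were stimulated with diluted bursicon conditioned medium after compound addition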
[12] = A549 cell cytotoxicity, dose response, cytotoxicity control, plate reader, cherry-pick, antagonist series (AID 743412); assay type: functional, cell-based
[13] = HEK293 cell cytotoxicity, dose response, cytotoxicity control, plate reader, cherry-picked samples (AID 743446); assay type: functional, cell-based
[14] = MC4R antagonists, dose response, counter-screen for LGR2 antagonist project, cell-based, plate reader, cherry pick (AID 743444); assay type: functional;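 further: transfected HEK 293 cells stimulated with alpha-MSH peptide; potency of inhibitors of the alpha-MSH evoked signal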
[15] = Shn3 3'UTR reporter inhibitors, dose response, cell-based, Clone20 osteoblasts, firefly luciferase, cherry-picked (AID 624132); assay type: functional;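 further: firefly luciferase luminescence from reporter carrying the Shn3 3'UTR in osteoblasts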
[16] = biological target: COUP transcription factor 2 (Homo sapiens, UniProt P24468); experiment: Luminescence-based cell-based high throughput dose response assay to identify inhibitors of COUP-TFII (NR2F2).; assay type: functional;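 further: HEK293 cells transiently cotransfected with COUP-TFII expression vector and reporter; luciferase reporter luminescence driven by COUP-TFII from the pX2-168 reporter plasmid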
[17] = biological target: Heat shock protein HSP 90-alpha (Homo sapiens, UniProt P07900); experiment: Luminescence-based dose response biochemical high throughput screening assay for inhibitors of the Heat Shock Protein 90 (HSP90). [Related pubchem assays: 1831 (Summary AID.), 1846 (Confirmation screen.), 1789 (Primary screen.)]
CAAX prenyl protease 2 = biological target: T3, CAAX prenyl protease 2 (Saccharomyces cerevisiae S288c, UniProt Q03530); assay type: biochemical
T3 sequence (Q03530 whole entry): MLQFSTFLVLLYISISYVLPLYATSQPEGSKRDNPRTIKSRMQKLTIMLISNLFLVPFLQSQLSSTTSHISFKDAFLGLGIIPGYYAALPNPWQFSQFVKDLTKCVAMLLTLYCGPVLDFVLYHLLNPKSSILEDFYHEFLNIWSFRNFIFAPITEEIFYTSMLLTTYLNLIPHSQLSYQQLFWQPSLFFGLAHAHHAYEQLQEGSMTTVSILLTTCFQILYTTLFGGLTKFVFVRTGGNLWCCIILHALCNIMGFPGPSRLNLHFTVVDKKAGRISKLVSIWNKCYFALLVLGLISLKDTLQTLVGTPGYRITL

Trypsin = Trypsin (Sus scrofa, UniProt P00761); experiment: porcine trypsin inhibitors, dose response, selectivity assay for Rce1 protease inhibitor project, biochemical, quenched peptide fluorescence, cherry-pick (AID 488789)
[18] = inhibitors of Vif binding to APOBEC3G peptide, primary screen, biochemical, TR-FRET, GST-Vif 1-94, biotin-A3G peptide, dose response retest (AID 1117319); assay type: functional;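 further: TR-FRET signal of purified GST-Vif binding a biotinylated A3G peptide; inhibitors lower the FRET signal by blocking Vif and A3G binding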

Sequence of Photoreceptor-specific nuclear receptor (Q9Y5X4 whole entry): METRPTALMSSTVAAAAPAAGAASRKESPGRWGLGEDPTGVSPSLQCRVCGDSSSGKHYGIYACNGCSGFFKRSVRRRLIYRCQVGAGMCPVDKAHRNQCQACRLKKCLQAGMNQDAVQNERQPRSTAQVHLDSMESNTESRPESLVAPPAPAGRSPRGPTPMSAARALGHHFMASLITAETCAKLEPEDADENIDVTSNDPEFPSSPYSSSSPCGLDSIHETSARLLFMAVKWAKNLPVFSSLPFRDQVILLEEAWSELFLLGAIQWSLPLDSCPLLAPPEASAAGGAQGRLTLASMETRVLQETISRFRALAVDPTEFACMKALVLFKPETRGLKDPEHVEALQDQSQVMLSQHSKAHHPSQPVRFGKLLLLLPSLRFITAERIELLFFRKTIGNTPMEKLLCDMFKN
Sequence of Protein Tat (P04608 whole entry): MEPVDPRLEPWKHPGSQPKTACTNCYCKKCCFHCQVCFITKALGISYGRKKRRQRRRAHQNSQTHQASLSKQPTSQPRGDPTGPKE
Sequence of Peroxisome proliferator-activated receptor gamma/Nuclear receptor corepressor 2 (P37231 whole entry): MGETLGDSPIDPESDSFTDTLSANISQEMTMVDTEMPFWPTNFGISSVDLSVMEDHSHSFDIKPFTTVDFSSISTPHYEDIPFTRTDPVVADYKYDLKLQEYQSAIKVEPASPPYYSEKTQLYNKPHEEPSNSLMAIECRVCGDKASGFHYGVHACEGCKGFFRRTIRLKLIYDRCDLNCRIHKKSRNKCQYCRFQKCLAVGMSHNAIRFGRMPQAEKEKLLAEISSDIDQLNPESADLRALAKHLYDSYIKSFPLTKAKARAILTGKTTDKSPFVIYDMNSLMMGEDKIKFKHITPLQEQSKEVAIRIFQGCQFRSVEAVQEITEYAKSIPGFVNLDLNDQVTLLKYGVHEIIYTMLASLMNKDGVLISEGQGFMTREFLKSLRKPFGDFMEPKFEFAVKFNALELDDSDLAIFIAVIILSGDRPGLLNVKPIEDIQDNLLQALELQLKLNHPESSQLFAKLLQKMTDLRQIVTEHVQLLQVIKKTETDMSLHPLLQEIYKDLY
Sequence of Peroxisome proliferator-activated receptor gamma/Nuclear receptor corepressor 2 (Q9Y618 whole entry): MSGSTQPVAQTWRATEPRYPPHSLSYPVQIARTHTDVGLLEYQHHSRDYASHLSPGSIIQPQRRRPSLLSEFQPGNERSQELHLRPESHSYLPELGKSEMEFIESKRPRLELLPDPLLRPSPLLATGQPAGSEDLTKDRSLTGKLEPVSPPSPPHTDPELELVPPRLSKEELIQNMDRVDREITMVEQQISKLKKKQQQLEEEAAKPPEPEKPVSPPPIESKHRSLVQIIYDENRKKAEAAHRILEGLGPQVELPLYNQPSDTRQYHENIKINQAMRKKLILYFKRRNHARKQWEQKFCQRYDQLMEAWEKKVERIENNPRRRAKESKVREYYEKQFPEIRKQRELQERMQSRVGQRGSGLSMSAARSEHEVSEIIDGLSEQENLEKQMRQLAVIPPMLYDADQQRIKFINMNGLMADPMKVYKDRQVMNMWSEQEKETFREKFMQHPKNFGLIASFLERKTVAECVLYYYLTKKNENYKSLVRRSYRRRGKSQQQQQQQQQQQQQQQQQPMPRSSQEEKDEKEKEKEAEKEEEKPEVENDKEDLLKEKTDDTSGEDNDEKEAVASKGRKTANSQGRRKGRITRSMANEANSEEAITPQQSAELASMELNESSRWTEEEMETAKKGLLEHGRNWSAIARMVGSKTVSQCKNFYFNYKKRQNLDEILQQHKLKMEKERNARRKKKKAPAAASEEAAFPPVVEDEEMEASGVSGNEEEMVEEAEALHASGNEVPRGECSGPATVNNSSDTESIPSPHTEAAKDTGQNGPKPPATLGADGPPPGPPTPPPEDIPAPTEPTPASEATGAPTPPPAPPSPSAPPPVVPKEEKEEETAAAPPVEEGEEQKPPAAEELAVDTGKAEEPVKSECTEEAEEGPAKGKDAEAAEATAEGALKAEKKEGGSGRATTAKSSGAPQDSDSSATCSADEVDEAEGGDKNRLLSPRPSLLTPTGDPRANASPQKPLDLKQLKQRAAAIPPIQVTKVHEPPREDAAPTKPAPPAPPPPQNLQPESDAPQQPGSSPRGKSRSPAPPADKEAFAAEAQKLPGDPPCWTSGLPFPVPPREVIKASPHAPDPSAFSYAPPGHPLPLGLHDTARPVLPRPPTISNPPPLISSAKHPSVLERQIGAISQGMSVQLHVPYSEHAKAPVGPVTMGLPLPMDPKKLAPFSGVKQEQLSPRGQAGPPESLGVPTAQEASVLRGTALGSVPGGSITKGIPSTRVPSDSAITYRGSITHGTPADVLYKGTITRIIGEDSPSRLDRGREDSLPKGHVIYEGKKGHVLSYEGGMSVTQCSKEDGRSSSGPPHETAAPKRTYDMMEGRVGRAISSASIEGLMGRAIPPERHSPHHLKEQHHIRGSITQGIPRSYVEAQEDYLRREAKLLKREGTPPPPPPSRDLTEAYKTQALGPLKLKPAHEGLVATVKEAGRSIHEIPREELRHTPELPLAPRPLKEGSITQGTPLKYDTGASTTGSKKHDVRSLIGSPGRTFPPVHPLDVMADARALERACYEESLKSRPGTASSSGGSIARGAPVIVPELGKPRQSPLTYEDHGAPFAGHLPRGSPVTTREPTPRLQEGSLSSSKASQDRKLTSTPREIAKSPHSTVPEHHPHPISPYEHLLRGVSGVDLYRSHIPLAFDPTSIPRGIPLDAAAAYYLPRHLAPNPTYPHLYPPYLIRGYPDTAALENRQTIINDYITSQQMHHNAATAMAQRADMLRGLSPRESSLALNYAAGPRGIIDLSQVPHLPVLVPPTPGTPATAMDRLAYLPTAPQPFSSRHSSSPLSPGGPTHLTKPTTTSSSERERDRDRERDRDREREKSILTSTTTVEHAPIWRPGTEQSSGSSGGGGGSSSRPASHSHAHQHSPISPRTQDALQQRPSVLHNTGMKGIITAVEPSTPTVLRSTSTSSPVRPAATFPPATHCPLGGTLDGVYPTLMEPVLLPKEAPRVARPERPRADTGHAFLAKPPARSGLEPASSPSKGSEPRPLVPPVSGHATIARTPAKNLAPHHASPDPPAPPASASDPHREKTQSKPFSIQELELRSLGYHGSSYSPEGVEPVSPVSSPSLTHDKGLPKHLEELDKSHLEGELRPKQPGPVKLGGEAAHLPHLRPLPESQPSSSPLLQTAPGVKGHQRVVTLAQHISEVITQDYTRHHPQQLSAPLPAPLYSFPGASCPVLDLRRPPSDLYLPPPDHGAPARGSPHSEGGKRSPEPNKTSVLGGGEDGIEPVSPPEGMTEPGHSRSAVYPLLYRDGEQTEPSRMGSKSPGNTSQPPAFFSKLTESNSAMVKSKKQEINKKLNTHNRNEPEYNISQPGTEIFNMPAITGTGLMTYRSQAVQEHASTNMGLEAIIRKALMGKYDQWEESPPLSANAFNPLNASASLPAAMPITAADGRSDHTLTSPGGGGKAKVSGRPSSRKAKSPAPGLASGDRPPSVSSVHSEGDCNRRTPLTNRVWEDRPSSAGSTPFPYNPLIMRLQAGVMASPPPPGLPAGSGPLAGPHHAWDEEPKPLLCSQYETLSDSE
Sequence of COUP transcription factor 2 (P24468 whole entry): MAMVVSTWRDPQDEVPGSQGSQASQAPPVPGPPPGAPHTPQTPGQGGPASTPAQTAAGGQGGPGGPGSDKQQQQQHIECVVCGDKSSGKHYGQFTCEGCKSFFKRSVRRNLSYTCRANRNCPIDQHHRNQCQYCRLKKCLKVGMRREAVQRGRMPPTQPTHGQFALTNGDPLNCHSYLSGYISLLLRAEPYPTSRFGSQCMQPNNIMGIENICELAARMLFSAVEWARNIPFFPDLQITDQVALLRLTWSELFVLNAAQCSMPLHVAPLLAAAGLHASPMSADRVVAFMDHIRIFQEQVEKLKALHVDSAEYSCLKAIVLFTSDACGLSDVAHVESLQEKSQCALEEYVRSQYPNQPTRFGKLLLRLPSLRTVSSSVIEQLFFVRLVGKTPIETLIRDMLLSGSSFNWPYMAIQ
Sequence of Genome polyprotein (P29990 2492-3391 limits assumed): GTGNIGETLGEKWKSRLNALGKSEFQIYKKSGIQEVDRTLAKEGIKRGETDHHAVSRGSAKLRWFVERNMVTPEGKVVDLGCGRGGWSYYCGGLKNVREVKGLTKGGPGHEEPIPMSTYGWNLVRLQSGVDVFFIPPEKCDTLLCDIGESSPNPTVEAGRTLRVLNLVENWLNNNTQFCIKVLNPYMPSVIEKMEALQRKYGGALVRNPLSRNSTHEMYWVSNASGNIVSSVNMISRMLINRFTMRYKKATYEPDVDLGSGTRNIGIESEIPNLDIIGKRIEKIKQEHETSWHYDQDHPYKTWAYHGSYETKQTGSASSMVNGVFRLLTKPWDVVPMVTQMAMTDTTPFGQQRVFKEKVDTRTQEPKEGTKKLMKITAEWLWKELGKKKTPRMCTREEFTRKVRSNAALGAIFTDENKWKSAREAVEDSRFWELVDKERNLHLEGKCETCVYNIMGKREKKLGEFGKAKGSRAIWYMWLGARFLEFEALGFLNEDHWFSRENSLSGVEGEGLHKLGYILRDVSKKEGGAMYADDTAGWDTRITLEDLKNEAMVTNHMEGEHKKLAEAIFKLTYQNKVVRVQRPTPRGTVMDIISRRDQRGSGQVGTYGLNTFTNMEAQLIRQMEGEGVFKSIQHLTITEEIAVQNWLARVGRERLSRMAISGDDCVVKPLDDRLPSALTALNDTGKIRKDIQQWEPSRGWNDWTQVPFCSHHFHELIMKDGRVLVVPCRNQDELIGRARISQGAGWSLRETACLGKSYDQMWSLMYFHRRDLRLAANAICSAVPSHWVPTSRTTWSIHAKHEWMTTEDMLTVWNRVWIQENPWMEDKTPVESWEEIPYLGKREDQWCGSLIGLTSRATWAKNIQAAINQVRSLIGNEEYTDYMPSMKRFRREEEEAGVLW
Sequence of Trypsin (P00761 whole entry): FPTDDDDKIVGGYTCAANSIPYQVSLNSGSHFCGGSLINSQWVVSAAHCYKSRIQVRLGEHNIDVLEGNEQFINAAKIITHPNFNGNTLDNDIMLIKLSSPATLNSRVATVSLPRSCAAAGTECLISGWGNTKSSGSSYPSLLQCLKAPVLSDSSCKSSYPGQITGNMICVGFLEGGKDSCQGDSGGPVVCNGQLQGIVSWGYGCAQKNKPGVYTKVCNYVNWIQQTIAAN

With `COc1ccc(C(=O)Nc2ccc3ccccc3c2)c(OC)c1` the EC50 [1] was > 67.5 µM (inactive) and the IC50 [2] was > 67.5 µM (inactive).
With `COc1ccc(N2C(=O)CC(Nc3ccc(N4CCOCC4)cc3)C2=O)c(OC)c1` (stereo unspecified) the IC50 (Protein Tat) was 12.4 µM (inconclusive) and the IC50 [3] was 174 µM (active).
In the case of `COC(=O)C1CCCN1C(=O)COc1ccc(Br)cc1Cl` (stereo unspecified), the IC50 [4] is reported as > 122 µM (inactive) and the IC50 [5] is reported as > 122 µM (inactive).
With `Cc1ccc2c(Cl)c(C(=O)Nc3cc(C)on3)sc2c1` the IC50 [6] was 12.7 µM (not active) and the IC50 [7] was 14.1 µM (not active).
With `O=C(Nc1cccc(-c2nc3cccnc3s2)c1)c1ccc(Cl)nc1` the IC50 [6] was 3.37 µM (active) and the IC50 [7] was 1.8 µM (active).
For `O=C(O)c1[nH]c2ccccc2c1C(c1cc(Br)ccc1O)c1c(C(=O)O)[nH]c2ccccc12`, the IC50 (Genome polyprotein) was 16 µM (active) and the AC50 (cells) was 9.21 µM (active).
In the case of `O=C(O)CSCC(=O)Nc1ccc(-c2nc3ccccc3s2)cc1`, the IC50 [8] is reported as 86.8 µM (active).
For `CC[C@H]1CN2CCc3cc(OC)c(OC)cc3C2C[C@@H]1C[C@H]1NCCc2cc(OC)c(OC)cc21` (stereo partly specified), the AC50 [9] was 0.0959 µM (active), the AC50 [10] was < 0.26 µM (active) and the AC50 [11] was 0.257 µM (active). For the same compound, the AC50 [12] was 0.0576 µM (active), the AC50 [13] was 0.0731 µM (active) and the AC50 [14] was 0.25 µM (active). The AC50 [15] was < 0.26 µM (active) and the IC50 [16] was 0.209 µM (active).
For `C=CCOC(=O)c1sc(NC(=O)c2ccc(OC)cc2)nc1C`, the IC50 [17] was 3.58 µM (active).
For `O=C(O)c1cc(-c2ccc(N3CCOCC3)cc2)nn1-c1ccc(F)cc1F`, the IC50 (Protein Tat) was > 100 µM (active), the AC50 (CAAX prenyl protease 2) was 13.5 µM (active) and the AC50 (Trypsin) was 6.65 µM (active). For the same compound, the IC50 [18] was > 100 µM (active).
